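Values below derive from 48-hour exposures of cells grown in 96-well plates, with endpoints linearly interpolated between the two concentrations bracketing the appropriate inhibition level. TGI: concentration producing complete growth inhibition.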
Key:
Test in all cases: NCI tumour cell line growth inhibition, 48 h
DMS 273 small cell lung = test system: DMS 273 small cell lung
XF 498 CNS = test system: XF 498 CNS
HOP-18 NSCLC = test system: HOP-18 NSCLC
P388 leukemia = test system: P388 leukemia
M19-MEL melanoma = test system: M19-MEL melanoma
P388/ADR leukemia = test system: P388/ADR leukemia
SN12K1 renal = test system: SN12K1 renal
LXFL 529 NSCLC = test system: LXFL 529 NSCLC

| Compound | TGI (DMS 273 small cell lung) | TGI (XF 498 CNS) | TGI (HOP-18 NSCLC) | TGI (P388 leukemia) | TGI (M19-MEL melanoma) | TGI (P388/ADR leukemia) | TGI (SN12K1 renal) | TGI (LXFL 529 NSCLC) |
| --- | --- | --- | --- | --- | --- | --- | --- | --- |
| CCCn1cc2c(SC)nc(SC)nc2n1 | > 100 µM | > 100 µM | > 100 µM |  |  |  |  |  |
| Cc1[nH]c(=O)[nH]c(=O)c1/C=C/C(=O)NC(CO)CS(=O)Cc1ccccc1 (configuration not stated) | > 300 µM | > 300 µM | > 300 µM | > 300 µM | > 300 µM | > 300 µM | > 300 µM |  |
| CC(C)C(=O)CC(c1ccc(Cl)cc1)N1N=C(C(C)C)CC1c1ccc(Cl)cc1 (configuration not stated) |  |  |  |  | > 55.6 µM |  |  | > 100 µM |

Reference: PubChem BioAssay (NCI)
